From US8507520B2, “Polysubstituted 2-aryl-6-phenylimidazo[1,2-A]pyridine derivatives, and preparation and therapeutic use thereof” (Sanofi, priority 2008, dated 2013)

Biological target: T1, mouse Nurr1 receptor (Mus musculus, UniProt Q06219)
T1 construct: a cell line (N2A) endogenously expressing the mouse Nurr1 receptor; host or cells: Neuro-2A (N2A) mouse neuroblastoma cells stably transfected with 8NBRE-luciferase
Test: In vitro activity on N2A cells (NBRE-luciferase reporter)
Assay type: cell-based
Details: N2A-8NBRE cells, products incubated 24 hours
Procedure: Evaluation of the In Vitro Activity on N2A Cells
• The activity of the compounds according to the invention was evaluated on a cell line (N2A) endogenously expressing the mouse Nurr1 receptor and stabily transfected with the NOT binding response element (NBRE) coupled to the luciferase reporter gene. The EC50 values are between 0.01 and 10 μM. The tests were carried out according to the procedure described below. • The Neuro-2A cell line comes from a standard commercial source (ATCC). The Neuro-2A clone was obtained from a spontaneous tumour originating from a mouse A albino strain by R. J. Klebe et al. This Neuro-2A line is subsequently stabily transfected with 8NBRE-luciferase. The N2A-8NBRE cells are cultured to confluence in 75 cm^2 culture flasks containing DMEM supplemented with 10% of foetal calf serum, 4.5 g/l of glucose and 0.4 mg/ml of geneticin. After one week of culture, the cells are recovered with 0.25% trypsin for 30 seconds and then resuspended in DMEM without phenol red, containing 4.5 g/l of glucose, 10% of Hyclone defatted serum, and deposited in white, transparent-bottom, 96-well plates. The cells are deposited at a rate of 60 000 per well in 75 μl for 24 hours before the addition of the products. The products were applied in 25 μl and incubated for a further 24 hours. On the day of measurement, an equivalent volume (100 μl) of Steadylite is added to each well, followed by a waiting period of 30 minutes in order to obtain complete lysis of the cells and maximum production of the signal. The plates are then measured in a microplate luminescence counter after having been sealed with an adhesive film. The products are prepared in the form of a stock solution at 10^−2 M, and then diluted in 100% of DMSO. Each product concentration is diluted beforehand in culture medium before incubation with the cells thus containing a final concentration of 0.625% of DMSO. […] It therefore appears that the compounds according to the invention have a NOT-modulating effect.

T1 sequence (Q06219 whole entry): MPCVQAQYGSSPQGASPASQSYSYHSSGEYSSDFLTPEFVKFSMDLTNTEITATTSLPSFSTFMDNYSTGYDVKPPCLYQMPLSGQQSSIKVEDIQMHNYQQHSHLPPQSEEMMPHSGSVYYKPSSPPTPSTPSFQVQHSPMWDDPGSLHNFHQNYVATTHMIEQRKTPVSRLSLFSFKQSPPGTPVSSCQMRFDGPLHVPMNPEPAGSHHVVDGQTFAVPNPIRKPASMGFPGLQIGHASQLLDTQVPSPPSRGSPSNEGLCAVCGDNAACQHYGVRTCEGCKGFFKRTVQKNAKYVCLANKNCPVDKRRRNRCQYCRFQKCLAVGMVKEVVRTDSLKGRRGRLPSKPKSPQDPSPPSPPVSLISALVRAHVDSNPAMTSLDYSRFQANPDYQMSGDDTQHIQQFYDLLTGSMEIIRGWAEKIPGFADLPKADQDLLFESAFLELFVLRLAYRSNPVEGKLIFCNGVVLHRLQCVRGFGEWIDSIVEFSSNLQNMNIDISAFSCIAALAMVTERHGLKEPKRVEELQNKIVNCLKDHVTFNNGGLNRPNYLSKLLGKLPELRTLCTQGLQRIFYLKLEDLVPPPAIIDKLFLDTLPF

SMILES | EC50
Cc1cc(-c2cccc(CO)c2)cn2cc(-c3ccc(Cl)cc3)nc12 [Compound 1, {3-[2-(4-Chlorophenyl)-8-methylimidazo[1,2-α]pyridin-6-yl]phenyl}methanol] | 5 nM
Cc1c(-c2ccccc2)nc2ccc(-c3cccc(CO)c3)cn12 [Compound 3, [3-(3-Methyl-2-phenylimidazo[1,2-α]pyridin-6-yl)phenyl]methanol] | 0.5 nM
Cc1cc(-c2ccc(CO)cc2)cn2cc(-c3ccc4ccccc4c3)nc12 [Compound 10, [4-(8-methyl-2-naphthyl-2-ylimidazo[1,2-α]pyridin-6-yl)phenyl]methanol] | 68 nM
COc1ccc(-c2nc3ccc(-c4cccc(C(C)(C)O)c4)cn3c2C)cc1 [Compound 15, 2-{3-[2-(4-methoxyphenyl)-3-methylimidazo[1,2-α]pyridin-6-yl]phenyl}propan-2-ol] | 161 nM
Cc1c(-c2cccc(Cl)c2)nc2ccc(-c3ccc(F)c(CO)c3F)cn12 [Compound 19, {3-[2-(3-chlorophenyl)-3-methylimidazo[1,2-α]pyridin-6-yl]-2,6-difluorophenyl}methanol] | 1.7 nM

System: not given
Test: not given
Details: not given

SMILES | melting point
Cc1cc(-c2cccc(CO)c2)cn2cc(-c3ccc(Cl)cc3)nc12 [Compound 1, {3-[2-(4-Chlorophenyl)-8-methylimidazo[1,2-α]pyridin-6-yl]phenyl}methanol] | 174 to 177 °C
